The source made the active and inactive calls. The rule behind the calls is not given here.
Legend:
[1] = system: Epidermal growth factor receptor (Homo sapiens), P00533 [L858R,T790M]; test: Time dependent inhibition of human EGFR T790M/L858R mutant expressed in Sf9 cells using [gamma32P]-ATP up to 1 hr by scintillation counting
[2] = molecular target: Epidermal growth factor receptor (Homo sapiens, UniProt P00533); test: Inhibition of human wild type EGFR expressed in Sf9 cells using [gamma32P]-ATP after 10 mins by scintillation counting
Chain of Epidermal growth factor receptor (P00533 whole entry): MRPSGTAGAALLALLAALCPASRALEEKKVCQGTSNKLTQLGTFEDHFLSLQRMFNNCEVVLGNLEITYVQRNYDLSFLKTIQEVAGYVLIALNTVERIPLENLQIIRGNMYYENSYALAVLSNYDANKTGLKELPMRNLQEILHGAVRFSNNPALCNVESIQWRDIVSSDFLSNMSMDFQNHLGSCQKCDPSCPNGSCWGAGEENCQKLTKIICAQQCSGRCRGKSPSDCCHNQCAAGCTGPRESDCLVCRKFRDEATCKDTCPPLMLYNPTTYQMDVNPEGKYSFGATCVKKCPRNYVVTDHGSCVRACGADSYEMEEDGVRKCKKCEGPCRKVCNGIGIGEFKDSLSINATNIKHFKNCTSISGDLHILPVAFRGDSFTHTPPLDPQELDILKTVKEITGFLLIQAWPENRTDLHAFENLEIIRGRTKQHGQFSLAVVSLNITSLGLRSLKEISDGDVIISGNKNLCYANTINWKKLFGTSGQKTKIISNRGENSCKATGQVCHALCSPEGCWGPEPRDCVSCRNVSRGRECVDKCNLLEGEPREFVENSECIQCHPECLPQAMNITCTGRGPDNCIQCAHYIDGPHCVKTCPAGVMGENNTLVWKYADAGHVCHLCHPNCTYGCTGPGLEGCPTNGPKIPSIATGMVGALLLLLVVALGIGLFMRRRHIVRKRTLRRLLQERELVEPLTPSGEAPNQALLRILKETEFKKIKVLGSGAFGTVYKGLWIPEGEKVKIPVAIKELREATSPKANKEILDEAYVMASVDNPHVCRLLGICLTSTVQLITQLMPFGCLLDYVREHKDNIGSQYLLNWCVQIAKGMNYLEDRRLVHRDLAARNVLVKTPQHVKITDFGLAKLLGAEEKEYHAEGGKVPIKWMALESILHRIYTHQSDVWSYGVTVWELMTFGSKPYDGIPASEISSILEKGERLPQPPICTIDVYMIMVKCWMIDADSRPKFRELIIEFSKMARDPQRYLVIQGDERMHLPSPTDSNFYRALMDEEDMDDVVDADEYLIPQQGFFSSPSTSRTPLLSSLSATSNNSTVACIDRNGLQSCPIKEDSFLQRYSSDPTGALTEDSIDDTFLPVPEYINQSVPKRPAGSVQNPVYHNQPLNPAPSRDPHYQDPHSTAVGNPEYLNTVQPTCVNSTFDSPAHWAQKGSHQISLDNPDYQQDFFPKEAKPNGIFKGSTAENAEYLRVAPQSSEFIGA

Chain of Epidermal growth factor receptor (Homo sapiens), P00533 [L858R,T790M] (P00533 whole entry T790M/L858R, looked up): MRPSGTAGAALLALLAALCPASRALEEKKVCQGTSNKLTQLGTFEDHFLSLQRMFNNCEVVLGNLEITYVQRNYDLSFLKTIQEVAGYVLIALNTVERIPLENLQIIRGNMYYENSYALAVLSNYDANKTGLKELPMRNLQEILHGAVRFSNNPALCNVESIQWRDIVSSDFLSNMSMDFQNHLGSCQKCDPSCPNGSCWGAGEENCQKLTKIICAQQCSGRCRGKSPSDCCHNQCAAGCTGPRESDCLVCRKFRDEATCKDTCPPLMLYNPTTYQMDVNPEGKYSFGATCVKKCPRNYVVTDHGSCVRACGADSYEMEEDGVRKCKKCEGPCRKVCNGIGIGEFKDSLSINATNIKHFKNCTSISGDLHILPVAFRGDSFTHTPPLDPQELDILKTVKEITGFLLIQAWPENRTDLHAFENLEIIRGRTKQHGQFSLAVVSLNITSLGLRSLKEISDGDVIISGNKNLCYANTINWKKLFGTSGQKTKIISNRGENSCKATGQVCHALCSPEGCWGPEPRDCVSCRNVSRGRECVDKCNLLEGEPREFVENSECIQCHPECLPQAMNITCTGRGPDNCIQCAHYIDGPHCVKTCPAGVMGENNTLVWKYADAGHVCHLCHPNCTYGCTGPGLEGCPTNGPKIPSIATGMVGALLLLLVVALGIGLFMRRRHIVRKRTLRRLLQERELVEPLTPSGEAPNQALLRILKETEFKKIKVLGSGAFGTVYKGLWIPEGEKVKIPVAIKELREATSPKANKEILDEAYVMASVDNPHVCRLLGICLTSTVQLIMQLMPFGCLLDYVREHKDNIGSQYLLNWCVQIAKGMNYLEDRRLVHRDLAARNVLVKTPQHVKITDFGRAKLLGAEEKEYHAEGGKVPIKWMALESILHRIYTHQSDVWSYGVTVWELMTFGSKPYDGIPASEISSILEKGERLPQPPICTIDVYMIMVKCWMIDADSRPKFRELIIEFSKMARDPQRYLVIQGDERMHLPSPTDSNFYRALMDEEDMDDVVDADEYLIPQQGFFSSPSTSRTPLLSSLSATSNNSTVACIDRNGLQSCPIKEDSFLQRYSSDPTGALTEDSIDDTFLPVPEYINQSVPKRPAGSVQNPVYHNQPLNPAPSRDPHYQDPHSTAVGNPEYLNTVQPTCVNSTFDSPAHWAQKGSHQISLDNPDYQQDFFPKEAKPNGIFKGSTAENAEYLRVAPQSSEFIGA

| inhibition [1] | IC50 [2] [nM] | Compound |
| --- | --- | --- |
| inactive | 4.6 | CN(C)C/C=C/C(=O)NCCn1ccc2ncnc(Nc3ccc(Oc4cccc(C(F)(F)F)c4)c(Cl)c3)c21 |
| – | 6.9 | O=C(Nc1cccc(Oc2ccc(Nc3ncnc4ccn(CCOCCO)c34)cc2Cl)c1)NC1CCCCC1 |
